Experimental data reported in the NIST ThermoML archive (doi:10.1016/j.tca.2014.05.034).
Numbers after ± are expanded uncertainties.

Assays:
[1] = xn = mol fraction of the nth substance listed; settings: 100 kPa, Liquid, x2 = 0; for kinematic viscosity: Capillary tube (Ostwald / Ubbelohde) method; for mass density: Pycnometric method
[2] = 100 kPa, Liquid; for kinematic viscosity: Capillary tube (Ostwald / Ubbelohde) method; for mass density: Pycnometric method

Compound | kinematic viscosity ([1]; 298.15 K) | mass density ([1]; 298.15 K) | kinematic viscosity ([1]; 303.15 K) | mass density ([1]; 303.15 K) | kinematic viscosity ([1]; 308.15 K) | mass density ([1]; 308.15 K) | kinematic viscosity ([1]; 313.15 K) | mass density ([1]; 313.15 K) | kinematic viscosity ([1]; 318.15 K) | mass density ([1]; 318.15 K) | kinematic viscosity ([2]; 298.15 K) | mass density ([2]; 298.15 K) | kinematic viscosity ([2]; 303.15 K) | mass density ([2]; 303.15 K) | kinematic viscosity ([2]; 308.15 K) | mass density ([2]; 308.15 K) | kinematic viscosity ([2]; 313.15 K) | mass density ([2]; 313.15 K) | kinematic viscosity ([2]; 318.15 K) | mass density ([2]; 318.15 K)
OCCOCCO [diethylene glycol] + NCCN | 2.47e-05 ± 2e-07 m2/s | 1112.8 ± 0.7 kg/m3 | 1.96e-05 ± 2e-07 m2/s | 1109.2 ± 0.7 kg/m3 | 1.53e-05 ± 1e-07 m2/s | 1105.6 ± 0.7 kg/m3 | 1.29e-05 ± 1e-07 m2/s | 1102.3 ± 0.7 kg/m3 | 1.1e-05 ± 1e-07 m2/s | 1099.2 ± 0.7 kg/m3 | – | – | – | – | – | – | – | – | – | –
NCCN [ethane-1,2-diamine] | – | – | – | – | – | – | – | – | – | – | 1.56e-06 ± 1e-08 m2/s | 893.3 ± 0.7 kg/m3 | 1.39e-06 ± 1e-08 m2/s | 888.8 ± 0.7 kg/m3 | 1.27e-06 ± 1e-08 m2/s | 884.9 ± 0.7 kg/m3 | 1.17e-06 ± 1e-08 m2/s | 880 ± 0.7 kg/m3 | 1.08e-06 ± 1e-08 m2/s | 875.2 ± 0.7 kg/m3
OCCOCCO [diethylene glycol] | – | – | – | – | – | – | – | – | – | – | 2.47e-05 ± 2e-07 m2/s | 1112.8 ± 0.7 kg/m3 | 1.96e-05 ± 2e-07 m2/s | 1109.2 ± 0.7 kg/m3 | 1.53e-05 ± 1e-07 m2/s | 1105.6 ± 0.7 kg/m3 | 1.29e-05 ± 1e-07 m2/s | 1102.3 ± 0.7 kg/m3 | 1.1e-05 ± 1e-07 m2/s | 1099.2 ± 0.7 kg/m3
